Laboratory results as given in ChEMBL document CHEMBL1136511, “Nonbenzamidine tetrazole derivatives as factor Xa inhibitors” (Bioorg Med Chem Lett, 2003).
One block for each molecule: values may come before it.

Key:
Coagulation factor X = Coagulation factor X (Homo sapiens, UniProt P00742); test: Inhibition of human purified factor Xa
[1] = Clearance after peroral administration of 0.2 mg/kg in dog was determined; assay type: ADME, organism-based, Canis lupus familiaris; parameters: dose 0.2 mg/kg, route oral; settings: in vivo, po
[2] = Half-life period after intravenous administration of 0.5 mg/kg in dog was determined; assay type: ADME, organism-based, Canis lupus familiaris; parameters: dose 0.5 mg/kg, route intravenous; settings: in vivo
[3] = Clearance after intravenous administration of 0.5 mg/kg in dog was determined; assay type: ADME, organism-based, Canis lupus familiaris; parameters: dose 0.5 mg/kg, route intravenous; settings: in vivo
Serine protease 1 = Serine protease 1 (Homo sapiens, UniProt P07477); test: Inhibitory constant against trypsin using human purified enzymes
Oryctolagus cuniculus = species: Oryctolagus cuniculus; test: Antithrombotic efficacy in rabbit A-V shunt model was determined; assay type: functional
[4] = Half-life period after peroral administration of 0.2 mg/kg in dog was determined; assay type: ADME, organism-based, Canis lupus familiaris; parameters: dose 0.2 mg/kg, route oral; settings: in vivo, po
Prothrombin = Prothrombin (Homo sapiens, UniProt P00734); test: Inhibitory constant against thrombin using human purified enzymes
[5] = Half-life period after intravenous administration of 1.0 mg/kg in dog was determined; assay type: ADME, organism-based, Canis lupus familiaris; parameters: dose 1 mg/kg, route intravenous; settings: in vivo
[6] = Clearance after intravenous administration of 1.0 mg/kg in dog was determined; assay type: ADME, organism-based, Canis lupus familiaris; parameters: dose 1 mg/kg, route intravenous; settings: in vivo

Sequence of Coagulation factor X (P00742 41-179 limits assumed): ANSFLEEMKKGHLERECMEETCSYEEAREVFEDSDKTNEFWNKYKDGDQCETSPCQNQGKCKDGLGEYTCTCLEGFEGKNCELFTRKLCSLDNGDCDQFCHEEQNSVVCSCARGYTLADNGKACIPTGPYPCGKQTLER
Sequence of Coagulation factor X (P00742 235-488 limits assumed): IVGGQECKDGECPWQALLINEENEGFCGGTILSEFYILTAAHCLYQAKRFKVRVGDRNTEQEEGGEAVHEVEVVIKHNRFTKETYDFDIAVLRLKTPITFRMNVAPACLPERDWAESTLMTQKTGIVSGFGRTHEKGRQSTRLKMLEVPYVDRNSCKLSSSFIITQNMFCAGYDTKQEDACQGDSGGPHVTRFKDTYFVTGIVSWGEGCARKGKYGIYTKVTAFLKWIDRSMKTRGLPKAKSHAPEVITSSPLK
Sequence of Serine protease 1 (P07477 whole entry): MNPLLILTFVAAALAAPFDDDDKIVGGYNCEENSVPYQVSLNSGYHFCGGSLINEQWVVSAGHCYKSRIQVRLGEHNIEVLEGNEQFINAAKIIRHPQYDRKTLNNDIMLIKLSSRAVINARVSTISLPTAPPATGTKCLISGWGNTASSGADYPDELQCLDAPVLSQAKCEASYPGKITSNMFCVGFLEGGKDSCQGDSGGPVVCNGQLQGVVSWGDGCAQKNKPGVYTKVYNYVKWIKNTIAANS

SMILES: Nc1noc2ccc(-n3nnnc3C(=O)Nc3ccc(-c4ccccc4S(N)(=O)=O)cc3)cc12
- Ki (Coagulation factor X): 0.98 nM
- Ki (Serine protease 1): > 1600 nM
- Ki (Prothrombin): 1500 nM

SMILES: COc1ccc(-n2nnnc2C(=O)Nc2ccc(-c3ccccc3S(N)(=O)=O)cc2)cc1N
- Ki (Serine protease 1): > 1600 nM
- Ki (Prothrombin): 4000 nM

SMILES: CS(=O)(=O)c1ccccc1-c1ccc(NC(=O)c2nnnn2-c2ccc3onc(N)c3c2)c(F)c1
- Ki (Coagulation factor X): 0.39 nM
- Ki (Serine protease 1): > 1600 nM
- Ki (Prothrombin): 400 nM

SMILES: N=C(N)c1cccc(-n2nnnc2C(=O)Nc2ccc(-c3ccccc3S(N)(=O)=O)cc2)c1
- half-life [5]: 0.65 h
- clearance [6]: 10.3 mL/min/kg
- Ki (Serine protease 1): 6.4 nM
- ID50 (Oryctolagus cuniculus): 0.13 µM/h/kg

SMILES: Nc1noc2ccc(-n3nnnc3C(=O)Nc3ccc(C(=O)N4CCCC4)cc3F)cc12
- Ki (Coagulation factor X): 2.9 nM
- Ki (Serine protease 1): > 1600 nM
- Ki (Prothrombin): > 21000 nM

SMILES: Nc1cc(-n2nnnc2C(=O)Nc2ccc(C(=O)N3CCCC3)cc2F)ccc1Cl
- Ki (Coagulation factor X): 3 nM
- Ki (Serine protease 1): > 1600 nM
- Ki (Prothrombin): 1200 nM

SMILES: Nc1cc(-n2nnnc2C(=O)Nc2ccc(-c3ccccc3S(N)(=O)=O)cn2)ccc1Cl
- Ki (Coagulation factor X): 8 nM
- Ki (Serine protease 1): > 1600 nM
- Ki (Prothrombin): 7900 nM

SMILES: NCc1cccc(-n2nnnc2C(=O)Nc2ccc(-c3ccccc3S(N)(=O)=O)cc2)c1
- Ki (Coagulation factor X): 13 nM
- Ki (Serine protease 1): 69 nM
- Ki (Prothrombin): > 21000 nM

SMILES: COc1ccc(-n2nnnc2C(=O)Nc2ccc(-c3ccccc3S(N)(=O)=O)cc2)cc1
- Ki (Coagulation factor X): 8 nM
- Ki (Serine protease 1): > 1600 nM
- Ki (Prothrombin): 10000 nM

More lines, main results first:

- Ki (Coagulation factor X): 1.2 nM
SMILES: Nc1cc(-n2nnnc2C(=O)Nc2ccc(-c3ccccc3S(N)(=O)=O)cc2F)ccc1Cl

- CL/F [1]: 5 mL/min/kg
- Ki (Coagulation factor X): 0.35 nM
- half-life [2]: 3.1 h
- clearance [3]: 5 mL/min/kg
- Ki (Serine protease 1): > 5200 nM
- half-life [4]: 3.1 h
- Ki (Prothrombin): 600 nM
SMILES: Nc1noc2ccc(-n3nnnc3C(=O)Nc3ccc(-c4ccccc4S(N)(=O)=O)cc3F)cc12
- ID50 (Oryctolagus cuniculus): 5.8 µM/h/kg

- Ki (Coagulation factor X): 3.3 nM
- Ki (Serine protease 1): > 1600 nM
- Ki (Prothrombin): 1600 nM
SMILES: Nc1cc(-n2nnnc2C(=O)Nc2ccc(-c3ccccc3S(N)(=O)=O)cc2Cl)ccc1Cl

- Ki (Coagulation factor X): 5.4 nM
- Ki (Serine protease 1): > 1600 nM
- Ki (Prothrombin): 1600 nM
SMILES: Nc1cc(-n2nnnc2C(=O)Nc2ccc(-c3ccccc3S(N)(=O)=O)cc2)ccc1Cl
